According to patent publication US20240217952A1, “TREATMENT OF GRAFT-VERSUS-HOST DISEASE WITH INHIBITORS OF BET FAMILY BDII BROMODOMAIN” (POSEIDON INNOVATION 1, INC., priority 2022, published 2024):

Columns and labels:
[1] = test system: imiquimod-induced psoriasis; assay: IMQ induced psoriasis mouse model; format: in vivo
Description: Except for the control group, all other groups received a daily topical dose of 60 mg of 5% commercially available IMQ cream on the shaved back for 7 consecutive days. The same amount of Vaseline was applied to the same areas of the animals in the negative control group.
Vehicle and DF-6129 were dosed daily (po) for 8 days, from Day −1 to Day 7. Dosing time: 1 hour prior to IMQ application.
The Psoriasis Area and Severity Index (PASI) scoring system was used to evaluate the severity of skin inflammation of the mouse model. Erythema, scaling, and skin thickness was scored independently from 0-4 as (daily scoring) as below:
Animals were euthanized 4 h post last dosing on day 7 (3 h after applying with imiquimod cream). Whole Blood was collected via cardiac puncture from all group animals. Serum samples were separated by centrifugation at 4° C. at 8000 g for 5 minutes, total 70 samples. All serum samples were stored at −80° C. for IL-17 analysis.
Animals were euthanized 4 h post last dosing on day 7 (3 h after applying with imiquimod cream) and back skin was be collected. The skin tissues were divided into two parts. One half was flash frozen and stored at −80° C. for PCR analysis (IL-17A, IL-17F, IL-22 and IL-23), the other half was fixed in 10% formalin for HE staining and scoring.
All statistical analysis were conducted, and the level of significance was set at P<0.05. The group means and standard deviation were calculated for all measurement parameters as study designed. One-way ANOVA comparisons among the groups was performed with software SPSS 16.0.

[2] = test system: MCP-1 secretion from LPS-stimulated human PBMCs; assay: PBMC MCP-1 HTRF Assay; format: cell-based; details: FIG. 2
Description: The cryopreserved PBMC cells were thawed in a 37° C. water bath immediately after taking out from liquid nitrogen storage. A sterile pipette was used to transfer the content to sterile […] centrifuge tube containing […] of complete growth medium (Gibico 1640) and centrifuge at 300×g for 10 min. Supernatant was discarded, and cell pellet was resuspended in 10 mL of complete growth media in a sterile 15 mL tube. The cells were rested for 1 h at 37° C. (1×10^6 cells/mL). The cells were spinned down at 300×g for 10 minutes after 1 h. Supernatant was discard, and cell pellet was resuspended in complete growth medium, the cells number and viability were measured by AO/PI staining. In a 384-well white plate, PBMCs at 25k cells/well (15 μl per well) were seeded with Gibico 1640 medium. The compound stock was serial diluted into 10 mM concentrations by 3-fold dilution. […]
For MCP-1 HTRF, 2.5 μl/well MCP-1 donor antibody and […] MCP-1 acceptor antibody were added into 384 well plate, following by centrifuging at 190×g for 1 min and incubating at room temperature for 2 h. The plate was read on the Envision.
The cryopreserved PBMC cells were thawed in a 37° C. water bath immediately after taking out from liquid nitrogen storage. […] Supernatant was discard, and cell pellet was resuspended in complete growth medium, the cells number and viability were measured by AO/PI staining. […]

[3] = test system: IL-17A, IL-17F and IL-21 T-cell dependent cytokine secretion; assay: Th17 Panel in Human PBMCs (anti-CD3 stimulation, Luminex); format: cell-based; details: anti-CD3 coated plates, 48 hours post stimulation, supernatant, FIG. 1
Description: High binding plates were coated with anti-CD3 (Clone UCHT-1, 0.2 ug/well) or its isotype control mIgG1 (0.2 ug/well) and incubated overnight at 4° C. Cryopreserved human PBMCs were seeded into U-bottom 96-well plates (2.4×10^5 cells/well) with 228 ul per well of culture medium (RPMI 1640, 10% HI-FBS, 1% P/S, 2 mM L-glutamine). Cells were incubated at 37° C., 5% CO2 for 1 hour prior to the addition of test compounds. Test compounds were solubilized in DMSO and further diluted to 20× with cell culture medium. Test compounds were added to the PBMCs in volumes of 12 ul in triplicate and incubated at 1 hour at 37° C., 5% CO2.
After the 1 hour incubation, 200 ul of cells ([…]) treated with test compounds or controls were transferred to the prepared anti-CD3 coated plates and incubated at 48 hours at 37° C., 5% CO2. Consequently, the final concentrations of assay controls were 1 ug/mL anti-CD3 (agonist) or 1 ug/mL mIgG1 isotype control, and 0.1% DMSO (vehicle control). At the end of the incubation period, plates were centrifuged at 200×g for 10 minutes. Cell culture supernatants were collected and stored at −80° C. until needed for analysis. Cytokine levels in each sample were determine using Luminex methodology per the manufacturer's protocol using the Human Th17 Magnetic Bead Panel from Milipore Sigma (HTH17MAG-14K).
Human PBMCs were treated with compound I-1 (Example 1) or vehicle control and then subjected to T cell activation mediated by anti-CD3 coated plates. 48 hours-post stimulation, IL-17A, IL-17F and IL-21 supernatant levels were quantified.

[4] = test system: Graft vs. Host Disease (GvHD); assay: GvHD, combination with adoptive transfer of expanded Tregs; format: in vivo, mouse; details: in combination with adoptive transfer of expanded Tregs; e.g. 3 mg/kg
Source text: It has been shown that BET inhibitors can be combined with Treg expansion therapy for treatment of diseases involving inflammatory response. Lethally irradiated (8.5 Gy) BALB/c mice received 5.5×10^6 TCD B6-CD45.1 BM cells and spleen cells from expanded (TrED) or unexpanded (TrUD) B6-FoxP3RFP donor mice adjusted to contain either […] or 1×10^6 total T cells (Copsel et al. 2019).

[5] = test system: Graft vs. Host Disease (GvHD); assay: GvHD, combination with CTLA4-Ig/Abatacept; format: in vivo, mouse; details: in combination with CTLA4-Ig; e.g. 3 mg/kg
Source text: It has been shown that in vivo infusion of recombinant, soluble CTLA4 fused with Ig heavy chains, as a surrogate ligand used to block CD28/CTLA4 T-cell costimulation, could prevent efficient T-cell activation and thereby reduce graft-versus-host disease (GVHD). Lethally irradiated B10.BR recipients of major histocompatibility complex disparate C57BL/6 donor grafts received intraperitoneal injections CTLA4-Ig in various doses and schedules beginning on day −1 or day 0 of bone marrow transplantation (BMT) (see Blazer et al. 1994).

[6] = test system: Graft vs. Host Disease (GvHD); assay: GvHD in irradiated female BALB/c mice engrafted with WBCs from female C57BL/6 mice; format: in vivo, mouse
[7] = test system: cGVHD; assay: cGVHD models (LP/J→C57BL/6 sclerodermatous; C57BL/6→B10.BR); format: in vivo, mouse; details: e.g. 3 mg/kg
Description: Compound I-2 is dosed at various doses, e.g., 3 mg/kg, and decreases incidence and/or […] onset of Graft vs. Host Disease (GvHD) in the LP/J-C57BL/6 model of sclerodermatous cGVHD and/or the C57BL/6→B10.BR cGVHD model that develops multiorgan system disease including bronchiolar obliterans (BO).

[8] = test system: GVHD; details: allogeneic animals compared with allogeneic control recipients; FIG. 3; cited from earlier work
[9] = test system: acute GVHD; details: oral gavage three times weekly, versus vehicle; FIG. 4; cited from earlier work

With `Cn1ccn(-c2ccc(-c3cc(F)cc(-c4cccc(N5CCN(C(C)(C)C)CC5)c4)c3O)cc2Cl)c1=O` [Compound I-1, 1-(3″-(4-(tert-butyl)piperazin-1-yl)-3-chloro-5′-fluoro-2′-hydroxy-[1,1′:3′,1″- terphenyl]-4-yl)-3-methyl-1,3-dihydro-2H-imidazol-2-one] as the compound, how does the “mRNA levels of IL-17A from the back skin” value ([1]; 10 mg/kg, compared with vehicle treatment alone, FIG. 7A) read?
Its value is “significantly reduced”.

And the “mRNA levels of IL-22 from the back skin” value ([1]; 10 mg/kg, compared with vehicle treatment alone, FIG. 7B)?
The value was “significantly reduced”.

And the “mRNA levels of IL-23 from the back skin” value ([1]; 10 mg/kg, compared with vehicle treatment alone, FIG. 7C)?
The value was “significantly reduced”.

And the “serum IL-17 levels” value ([1]; compared to vehicle treatment alone, ELISA, day 7, FIG. 6)?
Its value is “significantly reduced”.

What about the “total psoriasis (PASI) score” value ([1]; daily dosing po, compared to vehicle treatment, FIG. 5A) of the same compound?
The value was “significantly reduced”.

And the “erythema (PASI)” value ([1]; daily dosing po, compared to vehicle treatment, FIG. 5B)?
The value was “significant decreases”.

And the “scaling (PASI)” value ([1]; daily dosing po, compared to vehicle treatment, FIG. 5C)?
The value was “significant decreases”.

What about the “skin thickening (PASI)” value ([1]; daily dosing po, compared to vehicle treatment, FIG. 5D) of the same compound?
Its value is “significant decreases”.

What about the “MCP secretion from LPS-stimulated human PBMCs” value [2] of the same compound?
The value was “inhibited”.

What about the “IL21 T-cell dependent cytokine secretion” value [3] of the same compound?
The value was “inhibited”.

What about the “IL-17A T-cell dependent cytokine secretion” value [3] of the same compound?
Its value is “inhibited”.

And the “IL-17F T-cell dependent cytokine secretion” value [3]?
The value was “inhibited”.

What does the source list for `Cc1cc(-c2ccc(-n3ccn(C)c3=O)c(Cl)c2)c(O)c(-c2cccc(N3CCN(C(C)(C)C)CC3)c2)n1` [Compound I-2, 1-(4-(2-(3-(4-(tert-butyl)piperazin-1-yl)phenyl)-3-hydroxy-6-methylpyridin-4-yl)-2-chlorophenyl)-3-methyl-1,3-dihydro-2H-imidazol-2-one]?
incidence and/or onset of GvHD [4]: decreases incidence and/or delays of onset; incidence and/or onset of GvHD [5]: decreases incidence and/or delays onset; incidence and/or onset of GvHD ([6]; in combination with Ruxolitinib, compared to Ruxolitinib treatment alone, e.g. 3 mg/kg): decreases incidence and/or delays of onset; incidence and/or onset of GvHD ([6]; monotherapy, various doses e.g. 3 mg/kg): decreases incidence and/or delays onset; incidence and/or onset of GvHD (cGVHD) ([7]; in combination with Ruxolitinib): decreases incidence and/or delays onset; incidence and/or onset of GvHD (cGVHD) ([7]; monotherapy): decreases incidence and/or delayes onset

With `COc1cc2c(cc1-c1c(C)noc1C)ncc1[nH]c(=O)n([C@H](C)c3ccccn3)c12` [I-BET151] as the compound, how does the “GVHD severity (clinical score)” value [8] read?
Its value is “significantly reduced”.

And the survival rates [8]?
Its survival rates is “improved”.

Which survival [9] does the source give for `Cc1noc(C)c1-c1cnc2c(-c3ccc(C(=O)O)cc3)cn([C@@H](C)c3ccccn3)c2c1` [PLX51107] here?
Its survival is “significantly improved”.
